The values below come from US20100203110A1, “Therapeutics for Cancer Using 3-Bromopyruvate and Other Selective Inhibitors of ATP Production” (The Johns Hopkins University, priority 2006, published 2010).

Data set [1] has as its system VX2. The data set is described as follows: Cell viability, VX2. Format: cell-based, rabbit. As to conditions: 1 mM for 3 hour. Here is the method: (§1) Caspase-3 activity and reduced cell viability was also measured in cell lines (HepG2, THLE-2, and VX2 cell lines) following 3-bromopyruvate treatment (1 mM for 3 hour) (FIG. 6A). Caspase-3 activity increased in each cell line following treatment and cell viability decreased following treatment. An increase in caspase-3 activity indicated the mechanism of cell death is apoptotic. FIGS. 6 B and C show cell viability is reduced in each cell line with increasing 3-bromopyruvate concentration after 1 and 3 hours of treatment.

Data set [2] deals with T1, Type II hexokinase (Homo sapiens, UniProt P52789).
T1 construct: The cells were harvested, total protein extracted, purified and used to run a western blot; endogenous in cells; host or cells: Hep G2
T1 sequence (P52789 1-917): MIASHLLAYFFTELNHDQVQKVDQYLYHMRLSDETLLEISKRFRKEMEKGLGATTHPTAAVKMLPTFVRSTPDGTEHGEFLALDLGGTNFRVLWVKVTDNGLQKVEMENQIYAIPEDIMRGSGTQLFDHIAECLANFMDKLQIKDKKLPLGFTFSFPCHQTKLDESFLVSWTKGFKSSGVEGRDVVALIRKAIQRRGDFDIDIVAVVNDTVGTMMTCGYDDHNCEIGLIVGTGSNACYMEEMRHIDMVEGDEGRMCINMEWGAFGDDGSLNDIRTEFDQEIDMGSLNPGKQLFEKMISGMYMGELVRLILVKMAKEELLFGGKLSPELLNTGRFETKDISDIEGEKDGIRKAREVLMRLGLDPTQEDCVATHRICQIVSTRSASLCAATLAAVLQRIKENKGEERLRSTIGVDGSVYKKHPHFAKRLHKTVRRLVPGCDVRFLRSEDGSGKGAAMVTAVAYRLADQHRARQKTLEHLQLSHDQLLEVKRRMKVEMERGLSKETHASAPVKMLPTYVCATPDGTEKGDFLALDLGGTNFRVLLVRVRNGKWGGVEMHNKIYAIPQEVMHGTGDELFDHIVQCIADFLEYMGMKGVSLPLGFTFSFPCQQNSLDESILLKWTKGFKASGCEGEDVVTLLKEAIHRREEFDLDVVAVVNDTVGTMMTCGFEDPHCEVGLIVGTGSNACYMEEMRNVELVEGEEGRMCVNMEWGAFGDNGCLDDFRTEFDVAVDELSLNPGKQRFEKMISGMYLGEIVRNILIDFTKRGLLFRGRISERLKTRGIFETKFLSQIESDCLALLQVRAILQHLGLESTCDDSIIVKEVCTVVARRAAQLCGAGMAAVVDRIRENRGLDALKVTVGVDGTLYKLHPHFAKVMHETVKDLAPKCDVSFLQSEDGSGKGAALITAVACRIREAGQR
The data set is described as follows: Binding of 14C-labeled 3-bromopyruvate in Hep G2 cells (western blot / autoradiograph). The settings on record: 1 hour in HBSS. Here is the method:
In a further study, the human hepatocellular carcinoma cell line (HCC), Hep G2, was treated with ^14C-labeled 3-bromopyruvate for a period of 1 hour in HBSS. The cells were harvested, total protein extracted, purified and used to run a western blot. They were then transferred onto a membrane, probed with a Type II hexokinase specific antibody and the antibody binding signal was captured on film through Chemiluminescent detection system (western blotting). The corresponding gel was also separately exposed to an autoradiograph.
A general note: A western blot detects proteins with antibodies after separation by electrophoresis.

Data set [3] deals with THLE-2. The data set is described as follows: Cell viability, THLE-2. Format: cell-based. As to conditions: 1 mM for 3 hour. The method, then:
as §1

Data set [4] relates to VX2 rabbit liver tumors. The data set is described as follows: Intraarterial dose and infusion modality optimisation in VX2 liver cancer. Type of data set: in vivo. The method, then:
In a therapeutic dose study, 25 ml of 2.5 and 5 mM 3-BrPA were injected as a single intraarterial bolus over two minutes. Although these doses (2.5 and 5 mM) were 0.5 and 1 log higher than the 0.5 mM dose previously investigated, these doses were well within the IV therapeutic dose established in rats and rabbits.
Since patients with HCC also suffer from underlying liver disease such as cirrhosis and hepatitis, an important translational consideration for therapy is the absolute necessity to protect and preserve healthy liver parenchyma. To lessen the degree of liver toxicity, different temporal modalities of intraarterial injection were tested. One possibility was that such a large volume, delivered within the short time of 2 minutes may have added physical and chemical toxic effects on the liver. Thus, a 1-hour continuous infusion and a serial infusion of 2 boluses administered an hour apart were compared against the original single bolus dose. The volume of 25 mL and the concentration of 2.5 mM 3-bromopyruvate were kept constant. […] In each of these experiments, rabbits were sacrificed 48 hours after treatment and representative sections obtained of tumor and normal tissues (7 slides/sample). The samples were subjected to histopathological analysis to determine percentage tumor cell death and damage to the surrounding normal liver tissue. This was then confirmed with the TUNEL assay (FIG. 7) and Ki-67 immunohistochemistry. […] The prolonged slow infusion eliminated most, if not all, of the unwanted damage to the normal liver enabling the use of a much higher dose of 3-bromopyruvate to ensure complete destruction of the tumor.
Having determined that prolonged intraarterial infusion of 3-bromopyruvate was the optimal method of administration, a dose-response analysis was conducted. In part, this dose-response analysis was prompted by the persistent toxicity to healthy liver encountered at 2.5 mM. The objective was to optimize the 1-hour infusion in order to achieve complete tumor eradication without any toxicity to the normal liver parenchyma. Rabbits were intraarterially infused over 1-hour with doses ranging between 0.5 and 2.5 mM in 0.25 mM increments. The rabbits were fasted 24 hours prior to treatment and euthanized 48 hours after treatment. […] This total destruction was identified by histopathology (H&E) and confirmed by the TUNEL assay (FIG. 7). […] One possible explanation for this finding may be that 3-bromopyruvate at higher doses may have other cellular and chemical functions that are much more toxic to the normal liver parenchyma therein impeding the delivery of 3-bromopyruvate exclusively to the tumor. Thus, the healthy liver's ability to metabolize 3-bromopyruvate was optimal at the concentration of 1.75 mM.
To further explore use of the continuous infusion method of delivery, the effect of a 2-hour continuous infusion of 50 mL 1.75 mM 3-BrPA was tested.

Data set [5] has as its system Sk-Hep1. The data set is described as follows: ATP levels after treatment, Sk-Hep1. Type of data set: cell-based. As to conditions: 0.1, 0.2, 0.3 mM for 1 and 3 hours. The method, then:
ATP levels were measured in various cell lines, e.g., HepG2, Sk-Hep1, and Vx-2 after 3-bromopyruvate treatment. In each case, cells were treated with increasing concentration of 3-bromopyruvate (0.1 mM, 0.2 mM, and 0.3 mM) for 1 and 3 hours before measuring ATP levels in the cell. FIGS. 5 (A-C) show the ATP depletion observed following 3-bromopyruvate treatment in HepG2, Sk-Hep1, and Vx-2 cell lines, respectively.

Where [6] appears, read: 25 ml 5 mM, single IA bolus over two minutes.

Structures are written as SMILES.

With `O=C(O)C(=O)CBr` [3-bromopyruvate], the cell viability entry in data set [1] was “decreased”. Also, the “binding to Type II hexokinase” value in data set [2] is “directly binds”. The cell viability result in data set [3] is given as “decreased”. Further, the major organ toxicity entry in data set [4] (1-hour intraarterial infusion of 25 mL of 1.75 mM) is “without any evidence of major organ toxicity”. The “tumor kill and liver toxicity versus 1-hour infusion” value in data set [4] (2-hour continuous infusion of 50 mL 1.75 mM) is “no significant difference”. Moreover, the “damage to the normal liver” value in data set [4] (25 mL 1.75 mM, 1-hour IA infusion) is “without any damage”. The tumor cell destruction in data set [4] (25 mL 1.75 mM, 1-hour IA infusion, 48 hours, H&E and TUNEL) is 100%. Besides, in data set [4] (25 mL 2.5 mM, 1-hour continuous IA infusion, 48 hours), the “liver toxicity versus single bolus and 2 serial boluses” value is on record as “considerably less”. In addition, in data set [4] (25 ml 2.5 mM, single IA bolus), the surrounding healthy liver entry is “large areas of necrosis and fatty changes”; the survival after treatment result is reported as “barely able to survive for more than 48 hours”. Besides, in data set [4] (25 ml 2.5 mM, single IA bolus over two minutes), the tumor destruction result was “complete tumor destruction”. In data set [4] (25 ml 5 mM, single IA bolus), the mortality result is given as “death of all the rabbits” and the “other major organs, histopathology at necropsy” value was “completely uneffected”. Also, in data set [4] (setting [6]), the surrounding healthy liver result is given as “widespread necrosis” and the tumor destruction result is recorded as “completely destroyed the tumor”. The “toxicity to the healthy liver tissue” value in data set [4] (doses higher than 1.75 mM, 1-hour IA infusion) is on record as “increased toxicity”. Further, the ATP levels result in data set [5] is on record as “ATP depletion”.
